Results as given in PubChem BioAssay AID1259408 (Genetic Toxicology Data Bank (GENE-TOX), 2018).
Calls of active or inactive are those of the source. No rule for the calls is given here.

Test system: GENE-TOX genotoxicity assays, various organisms and cells
Assay: GENE-TOX mutagenicity studies
Conditions: for call: Assay Type: In vivo carcinogenicity studies
Source text: GENE-TOX provides genetic toxicology (mutagenicity) test data from expert peer review of open scientific literature for more than 3,000 chemicals from the United States Environmental Protection Agency (EPA). GENE-TOX was established to select assay systems for evaluation, review data in the scientific literature, and recommend proper testing protocols and evaluation procedures for these systems.
GENE-TOX covers the years 1991 - 1998. It is no longer updated.
This is an archive assay for GENE-TOX mutagenicity studies.

[1] = Species/Cell Type: Saccharomyces cerevisiae, Assay Type: Forward gene mutation, Assay Code: YEFT, Evaluation Type: Evaluation A (Pre-1980)
[2] = Species/Cell Type: Drosophila melanogaster, Assay Type: Sex-linked recessive lethal gene mutation, Assay Code: SRL+, Evaluation Type: Evaluation A (Pre-1980)
[3] = Species/Cell Type: Salmonella typhimurium (one or more of the five standard strains: TA98, TA100, TA1535, TA1537, and TA1538), Assay Type: Histidine reverse gene mutation, Ames assay, Assay Code: SAL+, Evaluation Type: Evaluation A (Pre-1980)
[4] = Species/Cell Type: Drosophila melanogaster, Assay Type: Sex-linked recessive lethal gene mutation, Assay Code: SRLT, Evaluation Type: Evaluation A (Pre-1980)
[5] = Species/Cell Type: Human lymphocytes, Assay Type: Sister-chromatid exchange (SCE) in vitro, Assay Code: SCL+, Evaluation Type: Evaluation B (Post-1980)
[6] = Species/Cell Type: Salmonella typhimurium (one or more of the five standard strains: TA98, TA100, TA1535, TA1537, and TA1538), Assay Type: Histidine reverse gene mutation, Ames assay, Assay Code: SALT, Evaluation Type: Evaluation A (Pre-1980)

With `C[n+]1c2ccccc2cc2ccccc21` as the molecule, how does the mutagenic call [1] read?
The mutagenic call was “no conclusion”.

Which mutagenic call [2] does the source give for `Cc1c2c(c(C)c3ccccc13)[C@H]1O[C@H]1c1ccccc1-2` here?
Its mutagenic call is “active; positive”.

And the mutagenic call (Species/Cell Type: Mouse prostate cells, Assay Type: Cell transformation, Assay Code: CTM+D, Dose Response: With dose response, Evaluation Type: Evaluation A (Pre-1980))?
Its mutagenic call is “active; positive”.

What about the mutagenic call [3] of the same molecule?
Its mutagenic call is “active; positive”.

Which mutagenic call [3] does the source give for `O=[N+]([O-])c1cccc2ncccc12` here?
Its mutagenic call is “active; positive”.

With `CN[C@@H](C)Cc1ccccc1` as the molecule, how does the mutagenic call [4] read?
Its mutagenic call is “no conclusion”.

With `CC(C)Oc1cc(-n2nc(C(C)(C)C)oc2=O)c(Cl)cc1Cl` as the molecule, how does the mutagenic call (Species/Cell Type: Saccharomyces cerevisiae, Assay Type: Mitotic recombination or gene conversion, Assay Code: YEC-, Evaluation Type: Evaluation A (Pre-1980)) read?
The mutagenic call was “inactive; negative”.

For `Nc1ncnc2c1ncn2[C@H]1C[C@H](O)[C@@H](CO)O1`, which mutagenic call (Species/Cell Type: Glycine max (soybean), Assay Type: Gene mutation, Assay Code: GLM-, Evaluation Type: Evaluation A (Pre-1980)) is on record?
Its mutagenic call is “inactive; negative”.

And the mutagenic call (Species/Cell Type: Nonhuman, Assay Type: Sister-chromatid exchange (SCE) in vitro, Assay Code: SC2T, Evaluation Type: Evaluation B (Post-1980))?
Its mutagenic call is “no conclusion”.

Which mutagenic call (Species/Cell Type: Human diploid fibroblasts, Assay Type: Unscheduled DNA synthesis (UDS) in vitro, DNA effects, Assay Code: UDH-, Evaluation Type: Evaluation A (Pre-1980)) does the source give for `CC(C)=CC1C(C(=O)O)C1(C)C` (stereo not drawn) here?
Its mutagenic call is “inactive; negative”.

And the mutagenic call (Species/Cell Type: Saccharomyces cerevisiae, Assay Type: Mitotic recombination or gene conversion, Assay Code: YEH-, Evaluation Type: Evaluation A (Pre-1980))?
The mutagenic call was “inactive; negative”.

With `C/C=C/c1ccc(O)c(OC)c1` as the molecule, how does the mutagenic call [5] read?
Its mutagenic call is “active; positive”.

How did the mutagenic call [6] turn out when `Oc1cc(Cl)c(-c2cc(Cl)ccc2Cl)cc1Cl` was run?
Its mutagenic call is “no conclusion”.

`Cc1ccc2c(c1)cc1ccccc1[n+]2C` was tested. Which mutagenic call [1] did it give?
Its mutagenic call is “no conclusion”.

`O=NO` was tested. Which mutagenic call (Species/Cell Type: Arabidopsis species, Assay Type: Gene mutation, Assay Code: ARMT, Evaluation Type: Evaluation A (Pre-1980)) did it give?
Its mutagenic call is “no conclusion”.

What about the mutagenic call (Species/Cell Type: Aspergillus nidulans, Assay Type: Forward gene mutation, Assay Code: ASF+, Evaluation Type: Evaluation A (Pre-1980)) of the same molecule?
Its mutagenic call is “active; positive”.

And the mutagenic call [2]?
The mutagenic call was “active; positive”.

What about the mutagenic call (Species/Cell Type: Escherichia coli polA (W3119 vs P3478), Assay Type: Rec-assay, DNA effects (bacterial DNA repair), Assay Code: RE1+, Evaluation Type: Evaluation A (Pre-1980)) of the same molecule?
The mutagenic call was “active; positive”.

What about the mutagenic call [5] of the same molecule?
Its mutagenic call is “active; positive”.

What about the mutagenic call (Species/Cell Type: Human, Assay Type: Sister-chromatid exchange (SCE) in vitro, Assay Code: SC1+, Evaluation Type: Evaluation B (Post-1980)) of the same molecule?
Its mutagenic call is “active; positive”.

And the mutagenic call (Species/Cell Type: Mammalian oocytes or early embryo, Assay Type: Chromosome aberrations in vivo, Assay Code: CYO+, Evaluation Type: Evaluation A (Pre-1980))?
Its mutagenic call is “active; positive”.

What about the mutagenic call (Species/Cell Type: Mammalian polychromatic erythrocytes, Assay Type: Micronucleus test, chromosome aberrations, Assay Code: MNT+, Evaluation Type: Evaluation B (Post-1980)) of the same molecule?
Its mutagenic call is “active; positive”.

What about the mutagenic call (Species/Cell Type: Mammalian polychromatic erythrocytes, Assay Type: Micronucleus test, chromosome aberrations, Assay Code: MNTT, Evaluation Type: Evaluation A (Pre-1980)) of the same molecule?
Its mutagenic call is “no conclusion”.

And the mutagenic call (Species/Cell Type: Mouse, Sex: Male, Assay Type: Heritable translocation test, chromosome aberrations, Assay Code: HTTT, Evaluation Type: Evaluation A (Pre-1980))?
The mutagenic call was “no conclusion”.

And the mutagenic call (Species/Cell Type: Neurospora crassa, Assay Type: Forward gene mutation, Assay Code: NEF+, Evaluation Type: Evaluation A (Pre-1980))?
The mutagenic call was “active; positive”.

What about the mutagenic call (Species/Cell Type: Neurospora crassa, Assay Type: Reverse gene mutation, Assay Code: NER+, Evaluation Type: Evaluation A (Pre-1980)) of the same molecule?
The mutagenic call was “active; positive”.

And the mutagenic call (Species/Cell Type: Nonhuman, Assay Type: Chromosome aberrations in vitro, Assay Code: CY&+D, Dose Response: With dose response, Evaluation Type: Evaluation A (Pre-1980))?
The mutagenic call was “active; positive”.

And the mutagenic call (Species/Cell Type: Nonhuman, Assay Type: Sister-chromatid exchange (SCE) in vitro, Assay Code: SC2+, Evaluation Type: Evaluation A (Pre-1980))?
The mutagenic call was “active; positive”.

And the mutagenic call (Species/Cell Type: Nonhuman, Assay Type: Sister-chromatid exchange (SCE) in vivo, Assay Code: SC3T, Evaluation Type: Evaluation B (Post-1980))?
Its mutagenic call is “no conclusion”.

What about the mutagenic call (Species/Cell Type: Rodents, Sex: Male, Assay Type: Dominant lethal test, Assay Code: DLT-, Evaluation Type: Evaluation A (Pre-1980)) of the same molecule?
Its mutagenic call is “inactive; negative”.

What about the mutagenic call (Species/Cell Type: Saccharomyces cerevisiae, Assay Type: Forward gene mutation, Assay Code: YEF+, Evaluation Type: Evaluation A (Pre-1980)) of the same molecule?
Its mutagenic call is “active; positive”.

What about the mutagenic call (Species/Cell Type: Saccharomyces cerevisiae, Assay Type: Mitotic recombination or gene conversion, Assay Code: YEC+, Evaluation Type: Evaluation A (Pre-1980)) of the same molecule?
Its mutagenic call is “active; positive”.

And the mutagenic call (Species/Cell Type: Saccharomyces cerevisiae, Assay Type: Mitotic recombination or gene conversion, Assay Code: YEH+, Evaluation Type: Evaluation A (Pre-1980))?
Its mutagenic call is “active; positive”.

And the mutagenic call (Species/Cell Type: Saccharomyces cerevisiae, Assay Type: Reverse gene mutation, Assay Code: YER+, Evaluation Type: Evaluation A (Pre-1980))?
The mutagenic call was “active; positive”.

And the mutagenic call [3]?
Its mutagenic call is “active; positive”.

What about the mutagenic call (Species/Cell Type: Salmonella typhimurium, Assay Type: Forward and reverse gene mutation, host-mediated assay, Assay Code: HMA-, Evaluation Type: Evaluation A (Pre-1980)) of the same molecule?
The mutagenic call was “inactive; negative”.

What about the mutagenic call (Species/Cell Type: Schizosaccharomyces pombe, Assay Type: Forward gene mutation, Assay Code: YEY+, Evaluation Type: Evaluation A (Pre-1980)) of the same molecule?
Its mutagenic call is “active; positive”.

And the mutagenic call (Species/Cell Type: Schizosaccharomyces pombe, Assay Type: Reverse gene mutation, Assay Code: YEZ+, Evaluation Type: Evaluation A (Pre-1980))?
The mutagenic call was “active; positive”.

And the mutagenic call (Species/Cell Type: Syrian hamster embryo (SHE) cells, Assay Type: Cell transformation, clonal assay, Assay Code: CTC+, Evaluation Type: Evaluation A (Pre-1980))?
Its mutagenic call is “active; positive”.

With `c1cc2cccc3c4cccc5cccc(c(c1)c23)c54` as the molecule, how does the mutagenic call (Species/Cell Type: Chinese hamster lung (V79) cells, Assay Type: Forward gene mutation, host-mediated assay, Assay Code: HMG-, Evaluation Type: Evaluation A (Pre-1980)) read?
The mutagenic call was “inactive; negative”.

What about the mutagenic call (Species/Cell Type: Nonhuman, Assay Type: Sister-chromatid exchange (SCE) in vivo, Assay Code: SC3-, Evaluation Type: Evaluation A (Pre-1980)) of the same molecule?
The mutagenic call was “inactive; negative”.

For `O.O.O.O.O.O.[Cl-].[Cl-].[Ni+2]`, which mutagenic call (Species/Cell Type: Nonhuman, Assay Type: Sister-chromatid exchange (SCE) in vitro, Assay Code: SC2+, Evaluation Type: Evaluation B (Post-1980)) is on record?
The mutagenic call was “active; positive”.

With `Cc1c(C2(c3cc(C(C)C)c(O)c(Br)c3C)OS(=O)(=O)c3ccccc32)cc(C(C)C)c(O)c1Br` as the molecule, how does the mutagenic call (Species/Cell Type: Bacillus subtilis (H17 vs M45), Assay Type: Rec-assay, spot test, DNA effects (bacterial DNA repair), Assay Code: REWT, Evaluation Type: Evaluation A (Pre-1980)) read?
The mutagenic call was “no conclusion”.

What does the source list for `Cc1c2c(c(CO)c3ccccc13)[C@H](O)[C@@H](O)c1ccccc1-2`?
mutagenic call (Species/Cell Type: Chinese hamster lung (V79) cells, Assay Type: Forward gene mutation at the HPRT or ouabain locus, Assay Code: V79-*, Activation: With metabolic activation, Evaluation Type: Evaluation A (Pre-1980)): inactive; negative; call (Species/Cell Type: Nonhuman, Assay Code: CCGT, Evaluation Type: Evaluation A (Pre-1980)): no conclusion

Which mutagenic call [6] does the source give for `Nc1nc(-c2ccc([N+](=O)[O-])[nH]2)cs1` here?
Its mutagenic call is “no conclusion”.

What does the source list for `Clc1ccc(C(c2ccc(Cl)cc2)C(Cl)Cl)cc1`?
mutagenic call [4]: no conclusion; mutagenic call (Species/Cell Type: Escherichia coli polA (W3119 vs P3478), Assay Type: Rec-assay, DNA effects (bacterial DNA repair), Assay Code: RE1T, Evaluation Type: Evaluation A (Pre-1980)): no conclusion; mutagenic call (Species/Cell Type: Nonhuman, Assay Type: Chromosome aberrations in vitro, Assay Code: CY&+, Evaluation Type: Evaluation A (Pre-1980)): active; positive; mutagenic call (Species/Cell Type: Serratia marcesens, Assay Type: Reverse gene mutation, host-mediated assay, Assay Code: HMC+, Evaluation Type: Evaluation A (Pre-1980)): active; positive

With `CCN(CC)Cc1cc(CC(=O)NN)ccc1OC(C)C` as the molecule, how does the mutagenic call (Species/Cell Type: Saccharomyces cerevisiae, Assay Type: Reverse gene mutation, Assay Code: YERT, Evaluation Type: Evaluation A (Pre-1980)) read?
Its mutagenic call is “no conclusion”.

`CNC(=O)Oc1ccccc1C(C)C` was tested. Which mutagenic call (Species/Cell Type: Bacillus subtilis (H17 vs M45T), Assay Type: Rec-assay, spot test, DNA effects (bacterial DNA repair), Assay Code: REX-, Evaluation Type: Evaluation A (Pre-1980)) did it give?
Its mutagenic call is “inactive; negative”.

And the mutagenic call (Species/Cell Type: Escherichia coli WP2, Assay Type: Tryptophan reverse gene mutation, Assay Code: WP2-, Evaluation Type: Evaluation A (Pre-1980))?
Its mutagenic call is “inactive; negative”.

`CC[C@@]1(O)C[C@H](O[C@H]2C[C@H](N(C)C)[C@H](O[C@H]3C[C@H](O)[C@H](O[C@H]4CCC(=O)[C@H](C)O4)[C@H](C)O3)[C@H](C)O2)c2c(cc3c(c2O)C(=O)c2c(O)cccc2C3=O)[C@H]1C(=O)OC` was tested. Which mutagenic call [6] did it give?
Its mutagenic call is “no conclusion”.

For `NC1=NC(=O)NC(=O)C1`, which mutagenic call (Species/Cell Type: Vicia faba, Assay Type: Chromosome aberrations, Assay Code: VIC+, Evaluation Type: Evaluation A (Pre-1980)) is on record?
The mutagenic call was “active; positive”.

Which results are given for `CC1=C2CCc3c2c(cc2c3ccc3ccccc32)C(O)C1O` (stereo not drawn)?
mutagenic call (Species/Cell Type: Chinese hamster lung (V79) cells, Assay Type: Forward gene mutation at the HPRT or ouabain locus, Assay Code: V79-, Evaluation Type: Evaluation A (Pre-1980)): inactive; negative; call (Species/Cell Type: Nonhuman, Assay Code: CCG+L, Evaluation Type: Evaluation A (Pre-1980)): active; positive

With `CC(C(=O)O)c1ccc(-c2ccccc2)c(F)c1` (stereo not drawn) as the molecule, how does the mutagenic call (Species/Cell Type: Human lymphocytes, Assay Type: Sister-chromatid exchange (SCE) in vivo, Assay Code: SCY+, Evaluation Type: Evaluation B (Post-1980)) read?
Its mutagenic call is “active; positive”.
